pIC50: −log10 of the molar value.
target: phosphorylated form of full length BTK (active BTK) (Homo sapiens (Human), UniProt Q06187); test: Mobility shift assay (MSA, Caliper LabChip), active BTK assay; format: biochemical; details: Assay type B (MSA using active BTK)
Protocol: The active BTK assay consists of phosphorylated form of full length BTK. […] The enzyme inhibitor complexes is incubated, before the kinase activation reaction is initiated.
Mobility Shift Assay (MSA)
The active BTK assay consisted of phosphorylated form of full length BTK. […] The enzyme inhibitor complexes was incubated for 30 minutes at the room temperature and the kinase activation reaction was initiated by the addition of 1 μM Srctide peptide substrate and […].

Chain of phosphorylated form of full length BTK (active BTK) (Q06187 whole entry): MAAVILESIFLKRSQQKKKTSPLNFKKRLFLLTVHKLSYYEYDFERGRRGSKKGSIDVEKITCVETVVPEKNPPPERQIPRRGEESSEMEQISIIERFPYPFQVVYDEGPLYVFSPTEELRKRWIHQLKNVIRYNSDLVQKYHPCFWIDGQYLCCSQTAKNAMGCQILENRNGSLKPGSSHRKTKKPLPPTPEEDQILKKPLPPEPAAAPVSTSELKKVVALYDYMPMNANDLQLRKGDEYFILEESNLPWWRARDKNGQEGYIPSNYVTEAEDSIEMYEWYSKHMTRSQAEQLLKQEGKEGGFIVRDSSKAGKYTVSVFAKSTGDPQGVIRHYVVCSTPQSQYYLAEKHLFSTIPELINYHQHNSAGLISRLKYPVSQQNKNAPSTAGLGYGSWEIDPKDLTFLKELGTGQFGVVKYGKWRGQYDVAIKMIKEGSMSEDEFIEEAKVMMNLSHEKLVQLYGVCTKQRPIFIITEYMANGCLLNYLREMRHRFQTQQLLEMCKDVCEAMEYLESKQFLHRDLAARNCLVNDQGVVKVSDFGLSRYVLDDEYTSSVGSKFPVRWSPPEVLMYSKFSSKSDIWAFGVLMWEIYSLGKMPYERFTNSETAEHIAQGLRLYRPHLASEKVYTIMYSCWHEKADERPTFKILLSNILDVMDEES

Row | pIC50 | Compound
1 | 8.51 | C[C@H](O)C(=O)N[C@@H](C)[C@@H]1CC[C@@H](Nc2ncnc3[nH]cc(C(=O)c4ccc(Oc5ccccc5)cc4Cl)c23)CO1 [Compound I-208, (S)—N—((S)-1-((2S,5R)-5-((5-(2-chloro-4-phenoxybenzoyl)-7H-pyrrolo[2,3-d]pyrimidin-4-yl)amino)tetrahydro-2H-pyran-2-yl)ethyl)-2-hydroxypropanamide]
2 | 8.40 | C[C@H](O)C(=O)N[C@@H](C)[C@@H]1CC[C@@H](Nc2ncnc3[nH]cc(C(=O)c4ccc(Oc5ccccc5)cc4)c23)CO1 [Compound I-209, (S)-2-hydroxy-N-((S)-1-((2S,5R)-5-((5-(4-phenoxybenzoyl)-7H-pyrrolo[2,3-d]pyrimidin-4-yl)amino)tetrahydro-2H-pyran-2-yl)ethyl)propanamide]
3 | 8.72 | C[C@H](O)C(=O)NC[C@@H]1CC[C@@H](Nc2ncnc3[nH]cc(C(=O)c4ccc(Oc5ccccc5)cc4Cl)c23)CO1 [Compound I-210, (S)—N-(((2S,5R)-5-((5-(2-chloro-4-phenoxybenzoyl)-7H-pyrrolo[2,3-d]pyrimidin-4-yl)amino)tetrahydro-2H-pyran-2-yl)methyl)-2-hydroxypropanamide]
4 | 8.54 | C[C@H](O)C(=O)NC[C@@H]1CC[C@@H](Nc2ncnc3[nH]cc(C(=O)c4ccc(Oc5ccccc5)cc4)c23)CO1 [Compound I-211, (S)-2-hydroxy-N-(((2S,5R)-5-((5-(4-phenoxybenzoyl)-7H-pyrrolo[2,3-d]pyrimidin-4-yl)amino)tetrahydro-2H-pyran-2-yl)methyl)propanamide]
5 | 8.60 | C[C@H](NC(=O)[C@@H](C)O)[C@@H]1CC[C@@H](Nc2ncnc3[nH]cc(C(=O)c4ccc(Oc5ccccc5)cc4Cl)c23)CO1 [Compound I-213, (R)—N—((S)-1-((2S,5R)-5-((5-(2-chloro-4-phenoxybenzoyl)-7H-pyrrolo[2,3-d]pyrimidin-4-yl)amino)tetrahydro-2H-pyran-2-yl)ethyl)-2-hydroxypropanamide]
6 | 8.41 | C[C@H](NC(=O)[C@@H](C)O)[C@@H]1CC[C@@H](Nc2ncnc3[nH]cc(C(=O)c4ccc(Oc5ccccc5)cc4)c23)CO1 [Compound I-215, (R)-2-hydroxy-N-((S)-1-((2S,5R)-5-((5-(4-phenoxybenzoyl)-7H-pyrrolo[2,3-d]pyrimidin-4-yl)amino)tetrahydro-2H-pyran-2-yl)ethyl)propanamide]
7 | 8.72 | C[C@@H](O)C(=O)NC[C@@H]1CC[C@@H](Nc2ncnc3[nH]cc(C(=O)c4ccc(Oc5ccccc5)cc4Cl)c23)CO1 [Compound I-216, (R)—N-(((2S,5R)-5-((5-(2-chloro-4-phenoxybenzoyl)-7H-pyrrolo[2,3-d]pyrimidin-4-yl)amino)tetrahydro-2H-pyran-2-yl)methyl)-2-hydroxypropanamide]
8 | 8.49 | C[C@@H](O)C(=O)NC[C@@H]1CC[C@@H](Nc2ncnc3[nH]cc(C(=O)c4ccc(Oc5ccccc5)cc4)c23)CO1 [Compound I-217, (R)-2-hydroxy-N-(((2S,5R)-5-((5-(4-phenoxybenzoyl)-7H-pyrrolo[2,3-d]pyrimidin-4-yl)amino)tetrahydro-2H-pyran-2-yl)methyl)propanamide]
